The source of these data is US8207144B2, “Sodium salt of disaccharide compound, production method and use of same” (Eisai R & D Management Co., Ltd., priority 2006, dated 2012).

A short description of the series: Storage stability test (formation of impurities A, B and C by HPLC). The series is classed as physicochemical. The settings on record: HPLC area percent. On the procedure: Consequently, formation rates (converted to monthly rates) were calculated for each of the three types of decomposition products (impurities A, B and C) using the area percent.
The mark [1] stands for this setting: storage at 25° C. in screw-cap glass bottle, day 0.
Setting [2] is: storage at 25° C., day 1.0, listed as 3.67 Na Salt.
Setting [3] is: storage at 25° C., day 1.9, listed as 3.67 Na Salt.
Where [4] appears, read: storage at 25° C., day 4.5, listed as 3.67 Na Salt.
Where [5] appears, read: storage at 25° C., day 1.0, listed as 3.93 Na Salt.
Where [6] appears, read: storage at 25° C., day 1.9, listed as 3.93 Na Salt.
[7] abbreviates: storage at 25° C., day 4.5, listed as 3.93 Na Salt.

`CCCCCC/C=C\CCCCCCCCCC(=O)NC1C(OCC2OC(OP(=O)([O-])[O-])C(NC(=O)CC(=O)CCCCCCCCCCC)C(OCCCCCCCCCC)C2O)OC(COC)C(OP(=O)([O-])[O-])C1OCCC(CCCCCCC)OC.[Na+].[Na+].[Na+].[Na+]` (stereo not drawn) [Comparative Example 1, reference compound]: the “Impurity A” value is, setting by setting: under setting [1], 0.00%; (storage at 25° C., day 1.0) 0.06%; (storage at 25° C., day 1.9) 0.08%; (storage at 25° C., day 4.5) 0.12%. Further, the “Impurity B” value reads like this: (storage at 25° C., day 0) 0.18%; (storage at 25° C., day 1.0) 0.36%; (storage at 25° C., day 1.9) 0.48%; (storage at 25° C., day 4.5) 0.67%. Besides, the “Impurity C” value is, setting by setting: (storage at 25° C., day 0) 0.00%; (storage at 25° C., day 1.0) 0.00%; (storage at 25° C., day 1.9) 0.00%; (storage at 25° C., day 4.5) 0.00%; (storage at 25° C., day 8.8) 0.00%; (storage at 25° C., day 29.5) 0.03%.

As for `CCCCCC/C=C\CCCCCCCCCC(=O)N[C@H]1[C@H](OC[C@H]2O[C@H](OP(=O)(O)O)[C@H](NC(=O)CC(=O)CCCCCCCCCCC)[C@@H](OCCCCCCCCCC)[C@@H]2O)O[C@H](COC)[C@@H](OP(=O)(O)O)[C@@H]1OCC[C@@H](CCCCCCC)OC` [Example 2], under setting [1], the “Impurity A” value is 0.00%. Also, under “storage at 25° C., day 0”, the “Impurity B” value was determined as 0.00% and the “Impurity C” value amounted to 0.00%. For the same compound, for the setting “storage at 25° C., day 18”, the “Impurity A” value was 0.00%, the “Impurity B” value is 0.00% and the “Impurity C” value came to 0.17%.

For `CCCCCC/C=C\CCCCCCCCCC(=O)N[C@H]1[C@H](OC[C@H]2O[C@H](OP(=O)([O-])[O-])[C@H](NC(=O)CC(=O)CCCCCCCCCCC)[C@@H](OCCCCCCCCCC)[C@@H]2O)O[C@H](COC)[C@@H](OP(=O)([O-])[O-])[C@@H]1OCC[C@@H](CCCCCCC)OC.[Na+].[Na+].[Na+].[Na+]` [Example 3], the “Impurity A” value came to 0.00% under setting [1], 0.00% under setting [2], 0.01% under setting [3] and 0.01% under setting [4]. Besides, the “Impurity C” value runs as follows: (storage at 25° C., day 0) 0.00%; (storage at 25° C., day 1.0) 0.00%; (storage at 25° C., day 1.9) 0.00%; (storage at 25° C., day 4.5) 0.01%; (storage at 25° C., day 8.8) 0.01%; (storage at 25° C., day 29.5, listed as 3.67 Na Salt) 0.07%. Further, the “Impurity B” value is recorded as 0.08% (storage at 25° C., day 0, listed as 3.67 Na Salt); 0.12% under setting [2]; 0.09% under setting [3]; 0.13% under setting [4].

`CCCCCC/C=C\CCCCCCCCCC(=O)N[C@H]1[C@H](OC[C@H]2O[C@H](OP(=O)([O-])[O-])[C@H](NC(=O)CC(=O)CCCCCCCCCCC)[C@@H](OCCCCCCCCCC)[C@@H]2O)O[C@H](COC)[C@@H](OP(=O)([O-])[O-])[C@@H]1OCC[C@@H](CCCCCCC)OC.[Na+].[Na+].[Na+].[Na+]` [Example 4]: the “Impurity A” value by setting is: under setting [1], 0.00%; under setting [5], 0.03%; under setting [6], 0.04%; under setting [7], 0.06%. Besides, the “Impurity C” value (storage at 25° C., day 0) is on record as 0.00%; the “Impurity C” value (storage at 25° C., day 1.0) is given as 0.00%; the “Impurity C” value (storage at 25° C., day 1.9) is 0.00%; the “Impurity C” value (storage at 25° C., day 4.5) is given as 0.01%; the “Impurity C” value (storage at 25° C., day 8.8) is given as 0.01%; the “Impurity C” value (storage at 25° C., day 29.5, listed as 3.93 Na Salt) is reported as 0.06%. The “Impurity B” value turned out to be 0.14% (storage at 25° C., day 0, listed as 3.93 Na Salt); 0.26% under setting [5]; 0.29% under setting [6]; 0.38% under setting [7].
